Drawing on US8653263B2 (Janssen Pharmaceutica, priority 2009, dated 2014), this text covers Ki for 33 compounds.

Structures are written as SMILES.

The target of this assay is human orexin-2 receptor (Homo sapiens (Human), UniProt O43614). Kind of assay: Human orexin 2 receptor radioligand binding ([3H]-EMPA competition). As to conditions: HEK293 cells stably expressing human orexin-2 receptor; [3H]-EMPA 5 nM final; apparent Ki=IC50/(1+C/Kd), Kd=2 nM; read-out: OR 2 Ki.
human orexin-2 receptor, sequence (O43614 whole entry): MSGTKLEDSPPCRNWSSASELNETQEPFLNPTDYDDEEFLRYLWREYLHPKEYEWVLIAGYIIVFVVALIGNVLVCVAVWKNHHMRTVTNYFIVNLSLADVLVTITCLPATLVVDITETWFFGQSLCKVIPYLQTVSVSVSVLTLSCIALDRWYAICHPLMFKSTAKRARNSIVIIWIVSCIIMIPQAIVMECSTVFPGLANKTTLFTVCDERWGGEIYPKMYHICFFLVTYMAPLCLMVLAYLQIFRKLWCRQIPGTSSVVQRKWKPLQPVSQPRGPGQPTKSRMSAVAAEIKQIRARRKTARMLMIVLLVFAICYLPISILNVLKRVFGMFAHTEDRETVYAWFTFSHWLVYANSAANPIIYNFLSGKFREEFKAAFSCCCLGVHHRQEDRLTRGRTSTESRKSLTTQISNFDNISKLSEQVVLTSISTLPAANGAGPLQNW
For `Cc1ccc(-c2ncccn2)c(C(=O)N2CC3CN(c4cc(C)nc(C(F)(F)F)n4)CC3C2)c1` (stereo not drawn) [Example 112, 2-[(5-Methyl-2-pyrimidin-2-ylphenyl)carbonyl]-5-[6-methyl-2-(trifluoromethyl)pyrimidin-4-yl]octahydropyrrolo[3,4-c]pyrrole], the Ki amounted to 95 nM. For the compound `O=C(c1cc(F)ccc1-c1ncccn1)N1CC2CN(c3nccc(-c4ccccc4)n3)CC2C1` (stereo not drawn) [Example 113, 2-[(5-Fluoro-2-pyrimidin-2-ylphenyl)carbonyl]-5-(4-phenylpyrimidin-2-yl)octahydropyrrolo[3,4-c]pyrrole], the Ki turned out to be 50 nM. For the compound `Cc1cc(N2CC3CN(C(=O)c4cc(F)ccc4-n4nccn4)CC3C2)nc(C(F)(F)F)n1` (stereo not drawn) [Example 114, 2-{[5-Fluoro-2-(2H-1,2,3-triazol-2-yl)phenyl]carbonyl}-5-[6-methyl-2-(trifluoromethyl)pyrimidin-4-yl]octahydropyrrolo[3,4-c]pyrrole], the Ki stood at 224 nM.

As to `Cc1cc(N2CC3CN(C(=O)c4cc(F)ccc4-n4nccn4)CC3C2)nc(C)n1` (stereo not drawn) [Example 115, [5-(2,6-Dimethyl-pyrimidin-4-yl)-hexahydro-pyrrolo[3,4-c]pyrrol-2-yl]-(5-fluoro-2-[1,2,3]triazol-2-yl-phenyl)-methanone], the Ki is 5000 nM. As for `CN(C)c1nc(N2CC3CN(C(=O)c4c(F)cccc4-c4ncccn4)CC3C2)cc(C(F)(F)F)n1` (stereo not drawn) [Example 116, 4-{5-[(2-Fluoro-6-pyrimidin-2-ylphenyl)carbonyl]hexahydropyrrolo[3,4-c]pyrrol-2(1H)-yl}-N,N-dimethyl-6-(trifluoromethyl)pyrimidin-2-amine], the figure is 22 nM; as for `Cc1cc(N2CC3CN(C(=O)c4c(F)cccc4-c4ncccn4)CC3C2)nc(C(F)(F)F)n1` (stereo not drawn) [Example 117, 2-[(2-Fluoro-6-pyrimidin-2-ylphenyl)carbonyl]-5-[6-methyl-2-(trifluoromethyl)pyrimidin-4-yl]octahydropyrrolo[3,4-c]pyrrole], 24 nM. On to `Cc1cc(N(C)C)nc(N2CC3CN(C(=O)c4ccccc4-n4nccn4)CC3C2)n1` (stereo not drawn) [Example 119, N,N,6-Trimethyl-2-[5-{[2-(2H-1,2,3-triazol-2-yl)phenyl]carbonyl}hexahydropyrrolo[3,4-c]pyrrol-2(1H)-yl]pyrimidin-4-amine], for which the Ki was found to be 51 nM. In the case of `Cc1cc(N2CC3CN(C(=O)c4ccccc4-n4nccn4)CC3C2)nc(N(C)C)n1` (stereo not drawn) [Example 120, N,N,4-Trimethyl-6-[5-{[2-(2H-1,2,3-triazol-2-yl)phenyl]carbonyl}hexahydropyrrolo[3,4-c]pyrrol-2(1H)-yl]pyrimidin-2-amine], the Ki is 71 nM. As to `CN(C)c1nc(N2CC3CN(C(=O)c4ccccc4-n4nccn4)CC3C2)cc(C(F)(F)F)n1` (stereo not drawn) [Example 121, N,N-Dimethyl-4-[5-{[2-(2H-1,2,3-triazol-2-yl)phenyl]carbonyl}hexahydropyrrolo[3,4-c]pyrrol-2(1H)-yl]-6-(trifluoromethyl)pyrimidin-2-amine], the Ki was 15 nM. Consider `Cc1cc(N2CC3CN(C(=O)c4ccccc4-n4nccn4)CC3C2)nc(C)n1` (stereo not drawn) [Example 122, 2-(2,6-Dimethylpyrimidin-4-yl)-5-{[2-(2H-1,2,3-triazol-2-yl)phenyl]carbonyl}octahydropyrrolo[3,4-c]pyrrole], for which the Ki is 865 nM. Consider `Cc1ccc(-n2nccn2)c(C(=O)N2CC3CN(c4nc(C)cnc4C)CC3C2)c1` (stereo not drawn) [Example 123, [5-(3,6-Dimethyl-pyrazin-2-yl)-hexahydro-pyrrolo[3,4-c]pyrrol-2-yl]-(5-methyl-2-[1,2,3]triazol-2-yl-phenyl)-methanone], for which the Ki worked out at 44 nM. As for `Cc1cc(N(C)C)nc(N2CC3CN(C(=O)c4cc(F)ccc4-n4nccn4)CC3C2)n1` (stereo not drawn) [Example 124, 2-[5-{[5-Fluoro-2-(2H-1,2,3-triazol-2-yl)phenyl]carbonyl}hexahydropyrrolo[3,4-c]pyrrol-2(1H)-yl]-N,N,6-trimethylpyrimidin-4-amine], the Ki is 422 nM. With `COc1ccc(N2CC3CN(C(=O)c4ccccc4-c4cccs4)CC3C2)nc1` (stereo not drawn) [Example 125, 2-(5-Methoxypyridin-2-yl)-5-[(2-thiophen-2-ylphenyl)carbonyl]octahydropyrrolo[3,4-c]pyrrole], the Ki came to 901 nM. As for `CCOc1ccc2ccccc2c1C(=O)N1CC2CN(c3nccc(-c4ccccc4)n3)CC2C1` (stereo not drawn) [Example 126, 2-[(2-Ethoxynaphthalen-1-yl)carbonyl]-5-(4-phenylpyrimidin-2-yl)octahydro pyrrolo[3,4-c]pyrrole], the Ki is 95 nM. As for `Cc1ccc(-n2nccn2)c(C(=O)N2CC3CN(c4nccc(-c5ccccc5)n4)CC3C2)c1` (stereo not drawn) [Example 127, 2-{[5-Methyl-2-(2H-1,2,3-triazol-2-yl)phenyl]carbonyl}-5-(4-phenylpyrimidin-2-yl)octahydropyrrolo[3,4-c]pyrrole], the Ki was 55 nM.

For the compound `COc1cc(OC)nc(N2CC3CN(C(=O)c4cc(C)ccc4-n4nccn4)CC3C2)n1` (stereo not drawn) [Example 129, 2-(4,6-Dimethoxypyrimidin-2-yl)-5-{[5-methyl-2-(2H-1,2,3-triazol-2-yl)phenyl]carbonyl}octahydropyrrolo[3,4-c]pyrrole], the Ki came out at 111 nM. Regarding `O=C(c1ccccc1-n1nccn1)N1CC2CN(c3nccc(-c4ccccc4)n3)CC2C1` (stereo not drawn) [Example 131, 2-(4-Phenylpyrimidin-2-yl)-5-{[2-(2H-1,2,3-triazol-2-yl)phenyl]carbonyl}octahydro pyrrolo[3,4-c]pyrrole], the Ki worked out at 75 nM. Turning to `Cc1cc(C)nc(N2CC3CN(C(=O)c4nc(C)sc4-c4ccccc4F)CC3C2)n1` (stereo not drawn) [Example 132, 2-(4,6-Dimethylpyrimidin-2-yl)-5-{[5-(2-fluorophenyl)-2-methyl-1,3-thiazol-4-yl]carbonyl}octahydropyrrolo[3,4-c]pyrrole], the Ki was found to be 125 nM. On to `Cc1cccc(N2CC3CN(C(=O)c4ccccc4-c4cccs4)CC3C2)n1` (stereo not drawn) [Example 134, 2-(6-Methylpyridin-2-yl)-5-[(2-thiophen-2-ylphenyl)carbonyl]octahydropyrrolo[3,4-c]pyrrole], for which the Ki amounted to 102 nM. Turning to `Cc1ccnc(N2CC3CN(C(=O)c4ccccc4-n4nccn4)CC3C2)n1` (stereo not drawn) [Example 135, 2-(4-Methylpyrimidin-2-yl)-5-{[2-(2H-1,2,3-triazol-2-yl)phenyl]carbonyl}octahydro pyrrolo[3,4-c]pyrrole], the Ki is 90 nM. Under `Cc1ccnc(N2CC3CN(C(=O)c4ccccc4-c4cccs4)CC3C2)c1` (stereo not drawn) [Example 136, 2-(4-Methylpyridin-2-yl)-5-[(2-thiophen-2-ylphenyl)carbonyl]octahydropyrrolo[3,4-c]pyrrole] stands 104 nM; under `COc1cccc(N2CC3CN(C(=O)c4ccccc4-c4cccs4)CC3C2)n1` (stereo not drawn) [Example 137, 2-(6-Methoxypyridin-2-yl)-5-[(2-thiophen-2-ylphenyl)carbonyl]octahydro pyrrolo[3,4-c]pyrrole], 50 nM. On to `COc1cc(OC)nc(N2CC3CN(C(=O)c4ccccc4-c4cccs4)CC3C2)n1` (stereo not drawn) [Example 138, 2-(4,6-Dimethoxypyrimidin-2-yl)-5-[(2-thiophen-2-ylphenyl)carbonyl]octahydro pyrrolo[3,4-c]pyrrole], for which the Ki came to 30 nM. For the compound `O=C(c1ccccc1-c1cccs1)N1CC2CN(c3nc4ccccc4o3)CC2C1` (stereo not drawn) [Example 139, 2-{5-[(2-Thiophen-2-ylphenyl)carbonyl]hexahydropyrrolo[3,4-c]pyrrol-2(1H)-yl}-1,3-benzoxazole], the Ki came to 63 nM. With `O=C(c1ccccc1-c1cccs1)N1CC2CN(c3ncccc3C(F)(F)F)CC2C1` (stereo not drawn) [Example 140, 2-[(2-Thiophen-2-ylphenyl)carbonyl]-5-[3-(trifluoromethyl)pyridin-2-yl]octahydro pyrrolo[3,4-c]pyrrole], the Ki was 119 nM.

As for `O=C(c1ccccc1-c1nnc[nH]1)N1CC2CN(c3nccc(-c4ccccc4)n3)CC2C1` (stereo not drawn) [Example 141, [5-(4-Phenyl-pyrimidin-2-yl)-hexahydro-pyrrolo[3,4-c]pyrrol-2-yl]-[2-(4H-[1,2,4]triazol-3-yl)-phenyl]-methanone], the Ki is 1030 nM.

As for `COc1cc(OC)nc(N2CC3CN(C(=O)c4nc(C)sc4-c4ccccc4F)CC3C2)n1` (stereo not drawn) [Example 142, 2-(4,6-Dimethoxypyrimidin-2-yl)-5-{[5-(2-fluorophenyl)-2-methyl-1,3-thiazol-4-yl]carbonyl}octahydropyrrolo[3,4-c]pyrrole], the Ki was 315 nM.

Turning to `O=C(c1ccccc1-n1nccn1)N1CC2CN(c3nccc(-c4cccs4)n3)CC2C1` (stereo not drawn) [Example 143, 2-(4-Thiophen-2-ylpyrimidin-2-yl)-5-{[2-(2H-1,2,3-triazol-2-yl)phenyl]carbonyl}octahydropyrrolo[3,4-c]pyrrole], the Ki came to 81 nM.

For the compound `O=C(c1ccccc1-n1nccn1)N1CC2CN(c3nc4ccccc4o3)CC2C1` (stereo not drawn) [Example 144, 2-[5-{[2-(2H-1,2,3-Triazol-2-yl)phenyl]carbonyl}hexahydropyrrolo[3,4-c]pyrrol-2(1H)-yl]-1,3-benzoxazole], the Ki turned out to be 87 nM. As to `CCOc1ccc2ccccc2c1C(=O)N1CC2CN(c3cnc4ccccc4n3)CC2C1` (stereo not drawn) [Example 145, 2-{5-[(2-Ethoxynaphthalen-1-yl)carbonyl]hexahydropyrrolo[3,4-c]pyrrol-2(1H)-yl}quinoxaline], the Ki is 45 nM.

For the compound `O=C(c1cc(F)ccc1-c1ncccn1)N1CC2CN(c3cnc4ccccc4n3)CC2C1` (stereo not drawn) [Example 146, 2-{5-[(5-Fluoro-2-pyrimidin-2-ylphenyl)carbonyl]hexahydropyrrolo[3,4-c]pyrrol-2(1H)-yl}quinoxaline], the Ki was found to be 27 nM. Regarding `CCOc1cccc(N2CC3CN(C(=O)c4ccccc4-n4nccn4)CC3C2)n1` (stereo not drawn) [Example 147, 2-(6-Ethoxypyridin-2-yl)-5-{[2-(2H-1,2,3-triazol-2-yl)phenyl]carbonyl}octahydro pyrrolo[3,4-c]pyrrole], the Ki came out at 85 nM. Under `O=C(c1cc(F)ccc1-c1ncccn1)N1CC2CN(c3nccc(C(F)(F)F)n3)CC2C1` (stereo not drawn) [Example 148, 2-[(5-Fluoro-2-pyrimidin-2-ylphenyl)carbonyl]-5-[4-(trifluoromethyl)pyrimidin-2-yl]octahydropyrrolo[3,4-c]pyrrole] stands 129 nM.
